Reference: ChEMBL document CHEMBL4706634, “PEGylated and Acylated Elabela Analogues Show Enhanced Receptor Binding, Prolonged Stability, and Remedy of Acute Kidney Injury” (J Med Chem, 2020)
Active and inactive are the calls of the source. The rule behind the calls is not given here.

Experiments:
Mus musculus [1] = assay: Reno-protective activity in C57BL/6 mouse model of renal I/R injury assessed as reduction in fibrosis by measuring collagen deposition dosed intraperitoneally twice per day for 3 days from day of I/R injury to end of experiment by Masson staining based assay; format: functional, organism-based; conditions: time 3.0 day
NRK-52E [2] = assay: Cytoprotective activity in rat NRK-52E cells assessed as reduction in cisplatin-induced cell death at 300 pM incubated for 24 hrs; format: functional, cell-based
[3] = Stability in mouse plasma assessed as half life at 1.56 mM by RP-HPLC analysis; format: ADME, cell-free
Mus musculus [4] = assay: Reno-protective activity in C57BL/6 mouse model of renal I/R injury assessed as improvement in pathologies in injured kidneys dosed intraperitoneally twice per day for 3 days from day of I/R injury to end of experiment by hematoxylin and eosin staining based assay; format: functional, organism-based; conditions: time 3.0 day
[5] = Half life in mouse at 3 umol/kg, iv by analytical RP-HPLC analysis; format: ADME, organism-based; conditions: in vivo, dose 3 µmol/kg
NRK-52E [6] = assay: Cytoprotective activity in rat NRK-52E cells assessed as reduction in H/R-injury induced cell death at 300 pM incubated for 24 hrs; format: functional, cell-based
Mus musculus [7] = assay: Reno-protective activity in C57BL/6 mouse model of renal I/R injury assessed as reduction in apoptosis by measuring increase in number of TUNEL+ cells dosed intraperitoneally twice per day for 3 days from day of I/R injury to end of experiment by TUNEL assay; format: functional, organism-based; conditions: time 3.0 day
[8] = Stability in mouse plasma assessed as intact peptide level at 1.56 mM incubated for 1 hr by RP-HPLC analysis; format: ADME, cell-free; conditions: read-out: Stabilty
Mus musculus [9] = assay: Reno-protective activity in C57BL/6 mouse model of renal I/R injury assessed as reduction in cleaved-caspase-3 levels dosed intraperitoneally twice per day for 3 days from day of I/R injury to end of experiment by Western blot analysis; format: functional, organism-based; conditions: time 3.0 day
Mus musculus [10] = assay: Reno-protective activity in C57BL/6 mouse model of renal I/R injury assessed as suppression of reduction in cleaved-caspase-8 levels dosed intraperitoneally twice per day for 3 days from day of I/R injury to end of experiment by Western blot analysis; format: functional, organism-based; conditions: time 3.0 day
Mus musculus [11] = assay: Reno-protective activity in C57BL/6 mouse model of renal I/R injury assessed as reduction in p-MLK levels dosed intraperitoneally twice per day for 3 days from day of I/R injury to end of experiment by Western blot analysis; format: functional, organism-based; conditions: time 3.0 day
Mus musculus [12] = assay: Reno-protective activity in C57BL/6 mouse model of renal I/R injury assessed as reduction lymphocyte infiltration dosed intraperitoneally twice per day for 3 days from day of I/R injury to end of experiment; format: functional, organism-based; conditions: time 3.0 day
Mus musculus [13] = assay: Reno-protective activity in C57BL/6 mouse model of renal I/R injury assessed as reduction neutrophil infiltration dosed intraperitoneally twice per day for 3 days from day of I/R injury to end of experiment; format: functional, organism-based; conditions: time 3.0 day
[14] = Stability in human plasma assessed as half life at 1.56 mM by RP-HPLC analysis; format: ADME, cell-free
Mus musculus [15] = assay: Reno-protective activity in C57BL/6 mouse model of renal I/R injury assessed as reduction in serum creatinine level dosed intraperitoneally twice per day for 3 days from day of I/R injury to end of experiment; format: functional, organism-based; conditions: time 3.0 day
Mus musculus [16] = assay: Reno-protective activity in C57BL/6 mouse model of renal I/R injury assessed as reduction in tubular epithelial cell necroptosis dosed intraperitoneally twice per day for 3 days starting from 6 to 24 hrs post I/R operation by TUNEL assay; format: functional, organism-based; conditions: time 3.0 day
Mus musculus [17] = assay: Reno-protective activity in C57BL/6 mouse model of renal I/R injury assessed as reduction neutrophil infiltration dosed intraperitoneally twice per day for 3 days starting from 6 to 24 hrs post I/R operation; format: functional, organism-based; conditions: time 3.0 day
Mus musculus [18] = assay: Reno-protective activity in C57BL/6 mouse model of renal I/R injury assessed as reduction N-gal mRNA levels dosed intraperitoneally twice per day for 3 days from day of I/R injury to end of experiment by qPCR analysis; format: functional, organism-based; conditions: time 3.0 day
Mus musculus [19] = assay: Reno-protective activity in C57BL/6 mouse model of renal I/R injury assessed as reduction Il6 mRNA levels dosed intraperitoneally twice per day for 3 days from day of I/R injury to end of experiment by qPCR analysis; format: functional, organism-based; conditions: time 3.0 day
Mus musculus [20] = assay: Reno-protective activity in C57BL/6 mouse model of renal I/R injury assessed as suppression of renal tubular damage dosed intraperitoneally twice per day for 3 days starting from 6 to 24 hrs post I/R operation by hematoxylin and eosin staining based assay; format: functional, organism-based; conditions: time 3.0 day
Mus musculus [21] = assay: Reno-protective activity in C57BL/6 mouse model of renal I/R injury assessed as reduction in tubular epithelial cell apoptosis dosed intraperitoneally twice per day for 3 days starting from 6 to 24 hrs post I/R operation by TUNEL assay; format: functional, organism-based; conditions: time 3.0 day
Mus musculus [22] = assay: Reno-protective activity in C57BL/6 mouse model of renal I/R injury assessed as suppression of renal dysfunction dosed intraperitoneally twice per day for 3 days starting from 6 hrs post I/R operation by hematoxylin and eosin staining based assay; format: functional, organism-based; conditions: time 3.0 day
Mus musculus [23] = assay: Reno-protective activity in C57BL/6 mouse model of renal I/R injury assessed as reduction TNF-alpha mRNA levels dosed intraperitoneally twice per day for 3 days from day of I/R injury to end of experiment by qPCR analysis; format: functional, organism-based; conditions: time 3.0 day
Mus musculus [24] = assay: Reno-protective activity in C57BL/6 mouse model of renal I/R injury assessed as reduction lymphocyte infiltration dosed intraperitoneally twice per day for 3 days starting from 6 to 24 hrs post I/R operation; format: functional, organism-based; conditions: time 3.0 day
Mus musculus [25] = assay: Reno-protective activity in C57BL/6 mouse model of renal I/R injury assessed as reduction in serum BUN level dosed intraperitoneally twice per day for 3 days from day of I/R injury to end of experiment; format: functional, organism-based; conditions: time 3.0 day
Mus musculus [26] = assay: Reno-protective activity in C57BL/6 mouse model of renal I/R injury assessed as reduction in fibrosis by measuring collagen deposition dosed intraperitoneally twice per day for 3 days starting from 6 to 24 hrs post I/R operation by Masson staining based assay; format: functional, organism-based; conditions: time 3.0 day
Mus musculus [27] = assay: Reno-protective activity in C57BL/6 mouse model of renal I/R injury assessed as reduction Kim1 mRNA expression dosed intraperitoneally twice per day for 3 days starting from 6 to 24 hrs post I/R operation by qPCR analysis; format: functional, organism-based; conditions: time 3.0 day
Mus musculus [28] = assay: Reno-protective activity in C57BL/6 mouse model of renal I/R injury assessed as reduction Kim1 mRNA levels dosed intraperitoneally twice per day for 3 days from day of I/R injury to end of experiment by qPCR analysis; format: functional, organism-based; conditions: time 3.0 day
Apelin receptor = target: T1, Apelin receptor (Rattus norvegicus, UniProt Q9JHG3); assay: Agonist activity at APJ receptor in rat NRK-52E cells assessed as effect on cAMP accumulation incubated for 1 hr by cAMP-Glo assay; format: functional, cell-based
T1 sequence (Q9JHG3 whole entry): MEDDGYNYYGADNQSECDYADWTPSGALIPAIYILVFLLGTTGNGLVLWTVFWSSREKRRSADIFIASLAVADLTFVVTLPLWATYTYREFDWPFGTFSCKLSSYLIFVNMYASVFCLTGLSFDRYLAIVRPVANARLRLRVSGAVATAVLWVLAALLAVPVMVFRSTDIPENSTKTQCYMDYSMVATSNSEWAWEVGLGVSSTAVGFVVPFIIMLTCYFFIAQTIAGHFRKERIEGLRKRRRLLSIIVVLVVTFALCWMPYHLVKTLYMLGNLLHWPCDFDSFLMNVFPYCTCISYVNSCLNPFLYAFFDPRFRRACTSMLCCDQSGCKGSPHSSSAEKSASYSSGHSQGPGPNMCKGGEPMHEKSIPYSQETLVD

Compound	Activity (Mus musculus [1])	Activity (NRK-52E [2])	half-life at 1560 µM [3] [min]	Activity (Mus musculus [4])	half-life [5] [min]	Activity (NRK-52E [6])	Activity (Mus musculus [7])	remaining at 1 h, 1560 µM [8] [%]	Activity (Mus musculus [9])	Activity (Mus musculus [10])	Activity (Mus musculus [11])	Activity (Mus musculus [12])	Activity (Mus musculus [13])	half-life at 1560 µM [14] [min]	Activity (Mus musculus [18])	Activity (Mus musculus [25])	EC50 (Apelin receptor) [nM]	other results
CSCC[C@H](NC(=O)[C@@H](N)CS)C(=O)N1CCC[C@H]1C(=O)N[C@@H](CC(C)C)C(=O)N[C@@H](Cc1c[nH]cn1)C(=O)N[C@@H](CO)C(=O)N[C@@H](CCCNC(=N)N)C(=O)N[C@H](C(=O)N1CCC[C@H]1C(=O)N[C@@H](Cc1ccccc1)C(=O)N1CCC[C@H]1C(N)=O)C(C)C	Active	Active	22.8	Active	21	Active	Active	19	Active	Active	Active	Active	Active	23.4	–	–	–	–
CCCCCCCCCCCCCCCC(=O)N[C@@H](CCC(=O)N[C@@H](CS)C(=O)N[C@@H](CCSC)C(=O)N1CCC[C@H]1C(=O)N[C@@H](CC(C)C)C(=O)N[C@@H](Cc1c[nH]cn1)C(=O)N[C@@H](CO)C(=O)N[C@@H](CCCNC(=N)N)C(=O)N[C@H](C(=O)N1CCC[C@H]1C(=O)N[C@@H](Cc1ccccc1)C(=O)N1CCC[C@H]1C(N)=O)C(C)C)C(=O)O	Active	Active	87	Active	1350	Active	Active	63.6	Active	Active	Active	Active	Active	118	Active	Active	–	Activity (Mus musculus [15]): Active; Activity (Mus musculus [16]): Active; Activity (Mus musculus [17]): Active; Activity (Mus musculus [19]): Active; Activity (Mus musculus [20]): Active; Activity (Mus musculus [21]): Active; Activity (Mus musculus [22]): Active; Activity (Mus musculus [23]): Active; Activity (Mus musculus [24]): Active; Activity (Mus musculus [26]): Active; Activity (Mus musculus [27]): Active; Activity (Mus musculus [28]): Active
CSCC[C@H](NC(=O)[C@H](CS)NC(=O)CC[C@H](NC(=O)CCOCCOCCOCCOCCOCCOCCN)C(=O)O)C(=O)N1CCC[C@H]1C(=O)N[C@@H](CC(C)C)C(=O)N[C@@H](Cc1c[nH]cn1)C(=O)N[C@@H](CO)C(=O)N[C@@H](CCCNC(=N)N)C(=O)N[C@H](C(=O)N1CCC[C@H]1C(=O)N[C@@H](Cc1ccccc1)C(=O)N1CCC[C@H]1C(N)=O)C(C)C	Active	Active	47.4	Active	–	Active	Active	38.7	Active	Active	Active	Active	Active	106	Active	Active	7.84	–
CCCCCCCCCCCCCCCC(=O)N[C@@H](CCC(=O)NCCCC[C@H](NC(=O)CCC(=O)N[C@@H](CS)C(=O)N[C@@H](CCSC)C(=O)N1CCC[C@H]1C(=O)N[C@@H](CC(C)C)C(=O)N[C@@H](Cc1c[nH]cn1)C(=O)N[C@@H](CO)C(=O)N[C@@H](CCCNC(=N)N)C(=O)N[C@H](C(=O)N1CCC[C@H]1C(=O)N[C@@H](Cc1ccccc1)C(=O)N1CCC[C@H]1C(N)=O)C(C)C)C(=O)N[C@@H](CS)C(=O)N[C@@H](CCSC)C(=O)N1CCC[C@H]1C(=O)N[C@@H](CC(C)C)C(=O)N[C@@H](Cc1c[nH]cn1)C(=O)N[C@@H](CO)C(=O)N[C@@H](CCCNC(=N)N)C(=O)N[C@H](C(=O)N1CCC[C@H]1C(=O)N[C@@H](Cc1ccccc1)C(=O)N1CCC[C@H]1C(N)=O)C(C)C)C(=O)O	inactive	–	305	inactive	–	–	–	75.9	–	–	–	inactive	inactive	> 1440	–	–	9.48	–
CCCCCCCCCCCCCCCC(=O)N[C@@H](CCC(=O)NCCCC[C@H](N)C(=O)N[C@@H](CS)C(=O)N[C@@H](CCSC)C(=O)N1CCC[C@H]1C(=O)N[C@@H](CC(C)C)C(=O)N[C@@H](Cc1c[nH]cn1)C(=O)N[C@@H](CO)C(=O)N[C@@H](CCCNC(=N)N)C(=O)N[C@H](C(=O)N1CCC[C@H]1C(=O)N[C@@H](Cc1ccccc1)C(=O)N1CCC[C@H]1C(N)=O)C(C)C)C(=O)O	Active	–	30	Active	–	–	Active	25.8	Active	Active	Active	Active	Active	37.8	–	–	7.98	–
CSCC[C@H](NC(=O)[C@H](CS)NC(=O)[C@H](CCCNC(=N)N)NC(=O)[C@H](CCCNC(=N)N)NC(=O)[C@@H]1CCC(=O)N1)C(=O)N1CCC[C@H]1C(=O)N[C@@H](CC(C)C)C(=O)N[C@@H](Cc1c[nH]cn1)C(=O)N[C@@H](CO)C(=O)N[C@@H](CCCNC(=N)N)C(=O)N[C@H](C(=O)N1CCC[C@H]1C(=O)N[C@@H](Cc1ccccc1)C(=O)N1CCC[C@H]1C(N)=O)C(C)C	–	–	17.4	–	–	–	–	–	–	–	–	–	–	–	–	–	–	–
